# Experimental data from US9833497B2, “Human originated EGF domain proteins and use of the same” (CHENGDU SOURCEBIO LIMITED-LIABILITY COMPANY, priority 2013, dated 2017).
# Experiments:
# Format in all cases: cell-based
# Citrobacter diversus = assay: MIC against Gram-negative bacteria: Citrobacter diversus; details: 5×10^5 CFU/mL
# Method in brief: (§1)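 MIC, the lowest recombinant protein concentration giving no bacterial growth, found by two-fold serial dilution of human EGF-domain proteins in triplicate. Inoculum 5×10^5 CFU/mL in LB from cultures at McFarland 0.5; plates incubated at 37° C, 175 rpm shaking.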
# Serratia marcescens = assay: MIC against Gram-negative bacteria: Serratia marcescens; details: 5×10^5 CFU/mL
# Method in brief: as §1
# Moraxella catarrhalis = assay: MIC against Gram-negative bacteria: Moraxella catarrhalis; details: 5×10^5 CFU/mL
# Method in brief: as §1
# Klebsiella pneumonia = assay: MIC against Gram-negative bacteria: Klebsiella pneumonia; details: 5×10^5 CFU/mL
# Method in brief: as §1
# E. coli DH5α = assay: Antibacterial activity: MIC and growth curve against E. coli DH5α in 96-well plate; details: minimal inhibitory concentration against E. coli DH5α; 96-well plate, 5×10^5 CFU/mL, 37° C., judged after 8 h
# Method in brief: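 Log-phase bacteria (OD600 ~0.5) resuspended in LB at 5×10^5 CFU/mL, exposed to recombinant protein at 50, 25, 12.5 μg/mL final in triplicate, 37 °C shaking at 175 rpm. OD600 read every 30 min; MIC is lowest concentration showing no growth.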
# Enterobacter cloacae = assay: MIC against Gram-negative bacteria: Enterobacter cloacae; details: 5×10^5 CFU/mL
# Method in brief: as §1
# Aeromonas hydrophila = assay: MIC against Gram-negative bacteria: Aeromonas hydrophila; details: 5×10^5 CFU/mL
# Method in brief: as §1
# Proteus mirabilis = assay: MIC against Gram-negative bacteria: Proteus mirabilis; details: 5×10^5 CFU/mL
# Method in brief: as §1
# E. coli BL21 = assay: MIC against Gram-negative bacteria: E. coli BL21; details: 5×10^5 CFU/mL
# Method in brief: as §1
# Proteus vulgaris = assay: MIC against Gram-negative bacteria: Proteus vulgaris; details: 5×10^5 CFU/mL
# Method in brief: as §1
# Pseudomonas aeruginosa = assay: MIC against Gram-negative bacteria: Pseudomonas aeruginosa; details: 5×10^5 CFU/mL
# Method in brief: as §1
# [1] = Citrobacter diversus, 10 h cultivation at 37° C.
# [2] = Serratia marcescens, 10 h cultivation at 37° C.
# [3] = Moraxella catarrhalis, 10 h cultivation at 37° C.
# [4] = Klebsiella pneumonia, 10 h cultivation at 37° C.
# [5] = Enterobacter cloacae, 10 h cultivation at 37° C.
# [6] = Aeromonas hydrophila, 10 h cultivation at 37° C.
# [7] = Proteus mirabilis, 10 h cultivation at 37° C.
# [8] = E. coli BL21, 10 h cultivation at 37° C.
# [9] = Proteus vulgaris, 10 h cultivation at 37° C.
# [10] = Pseudomonas aeruginosa, 10 h cultivation at 37° C.
# [11] = 10 h cultivation at 37° C., two-fold serial dilution
substance,measurement,setting,value
PRT1464 (CNCDKTGTINGSLLCNKSTGQCPCKLGVTGLRCNQCEPHRYNLTIDNFQHCQM; listed as Homo sapiens),MIC against C. diversus,Citrobacter diversus; [1],12.5 µg/mL
same,MIC against S. marcescens,Serratia marcescens; [2],50 µg/mL
same,MIC against M. catarrhalis,Moraxella catarrhalis; [3],12.5 µg/mL
same,MIC against K. pneumonia,Klebsiella pneumonia; [4],12.5 µg/mL
same,MIC,E. coli DH5α,12.5 µg/mL
same,MIC against E. cloacae,Enterobacter cloacae; [5],12.5 µg/mL
same,MIC against A. hydrophila,Aeromonas hydrophila; [6],12.5 µg/mL
same,MIC against P. mirabilis,Proteus mirabilis; [7],12.5 µg/mL
same,MIC against E. coli BL21,E. coli BL21; [8],25 µg/mL
same,MIC against P. vulgaris,Proteus vulgaris; [9],25 µg/mL
same,MIC against P. aeruginosa,Pseudomonas aeruginosa; [10],12.5 µg/mL
PRT156 (DINECDSNPCHHGGSCLDQPNGYNCHCPHGWVGANCE; listed as Homo sapiens),MIC (μg/mL) C. diversus,"Citrobacter diversus; C. diversus, 10 h cultivation at 37° C.",12.5 µg/mL
same,MIC (μg/mL) S. marcescens,"Serratia marcescens; S. marcescens, 10 h cultivation at 37° C.",50 µg/mL
same,MIC (μg/mL) M. catarrhalis,"Moraxella catarrhalis; M. catarrhalis, 10 h cultivation at 37° C.",50 µg/mL
same,MIC (μg/mL) K. pneumonia,"Klebsiella pneumonia; K. pneumonia, 10 h cultivation at 37° C.",25 µg/mL
same,MIC,E. coli DH5α,25 µg/mL
same,MIC (μg/mL) E. cloacae,"Enterobacter cloacae; E. cloacae, 10 h cultivation at 37° C.",12.5 µg/mL
same,MIC (μg/mL) A. hydrophila,"Aeromonas hydrophila; A. hydrophila, 10 h cultivation at 37° C.",25 µg/mL
same,MIC (μg/mL) P. mirabilis,"Proteus mirabilis; P. mirabilis, 10 h cultivation at 37° C.",12.5 µg/mL
same,MIC (μg/mL) E. coli BL21,E. coli BL21; [8],12.5 µg/mL
same,MIC (μg/mL) P. vulgaris,"Proteus vulgaris; P. vulgaris, 10 h cultivation at 37° C.",50 µg/mL
same,MIC (μg/mL) P. aeruginosa,"Pseudomonas aeruginosa; P. aeruginosa, 10 h cultivation at 37° C.",12.5 µg/mL
PRT1045 (HGPGCQEHCLCLHGGVCQATSGLCQCAPGYTGPHCA; listed as Homo sapiens),MIC C. diversus,Citrobacter diversus; [11],50 µg/mL
same,MIC S. marcescens,Serratia marcescens; [11],50 µg/mL
same,MIC M. catarrhalis,Moraxella catarrhalis; [11],50 µg/mL
same,MIC K. pneumonia,Klebsiella pneumonia; [11],50 µg/mL
same,MIC,E. coli DH5α,25 µg/mL
same,MIC E. cloacae,Enterobacter cloacae; [11],12.5 µg/mL
same,MIC A. hydrophila,Aeromonas hydrophila; [11],50 µg/mL
same,MIC P. mirabilis,Proteus mirabilis; [11],12.5 µg/mL
same,MIC E. coli BL21,E. coli BL21; [11],50 µg/mL
same,MIC P. vulgaris,Proteus vulgaris; [11],50 µg/mL
same,MIC P. aeruginosa,Pseudomonas aeruginosa; [11],25 µg/mL
PRT451 (SFYCSCRPGYKLMSDKRTCVDIDE; listed as Homo sapiens),MIC against C. diversus,"Citrobacter diversus; 96-well plate, 37° C., 10 h",12.5 µg/mL
same,MIC against S. marcescens,"Serratia marcescens; 96-well plate, 37° C., 10 h",12.5 µg/mL
same,MIC against M. catarrhalis,"Moraxella catarrhalis; 96-well plate, 37° C., 10 h",50 µg/mL
same,MIC against K. pneumonia,"Klebsiella pneumonia; 96-well plate, 37° C., 10 h",12.5 µg/mL
same,MIC,E. coli DH5α,25 µg/mL
same,MIC against E. cloacae,"Enterobacter cloacae; 96-well plate, 37° C., 10 h",25 µg/mL
same,MIC against A. hydrophila,"Aeromonas hydrophila; 96-well plate, 37° C., 10 h",50 µg/mL
same,MIC against P. mirabilis,"Proteus mirabilis; 96-well plate, 37° C., 10 h",12.5 µg/mL
same,MIC against E. coli BL21,"E. coli BL21; 96-well plate, 37° C., 10 h",50 µg/mL
same,MIC against P. vulgaris,"Proteus vulgaris; 96-well plate, 37° C., 10 h",50 µg/mL
same,MIC against P. aeruginosa,"Pseudomonas aeruginosa; 96-well plate, 37° C., 10 h",25 µg/mL
PRT693 (SSGMCQRNPQVCGPGRCISRPSGYTCACDSGFRLSPQGTRCI; listed as Homo sapiens),MIC C. diversus,"Citrobacter diversus; 96-well plate, 37° C., 10 h",50 µg/mL
same,MIC S. marcescens,"Serratia marcescens; 96-well plate, 37° C., 10 h",50 µg/mL
same,MIC M. catarrhalis,"Moraxella catarrhalis; 96-well plate, 37° C., 10 h",12.5 µg/mL
same,MIC K. pneumonia,"Klebsiella pneumonia; 96-well plate, 37° C., 10 h",25 µg/mL
same,MIC,E. coli DH5α,25 µg/mL
same,MIC E. cloacae,"Enterobacter cloacae; 96-well plate, 37° C., 10 h",12.5 µg/mL
same,MIC A. hydrophila,"Aeromonas hydrophila; 96-well plate, 37° C., 10 h",25 µg/mL
same,MIC P. mirabilis,"Proteus mirabilis; 96-well plate, 37° C., 10 h",25 µg/mL
same,MIC E. coli BL21,"E. coli BL21; 96-well plate, 37° C., 10 h",12.5 µg/mL
same,MIC P. vulgaris,"Proteus vulgaris; 96-well plate, 37° C., 10 h",50 µg/mL
same,MIC P. aeruginosa,"Pseudomonas aeruginosa; 96-well plate, 37° C., 10 h",50 µg/mL
PRT1346 (EVNECQSNPCLNNAVCEDQVGGFLCKCPPGFLGTRCG; listed as Homo sapiens),MIC against C. diversus,Citrobacter diversus; [1],25 µg/mL
same,MIC against S. marcescens,Serratia marcescens; [2],25 µg/mL
same,MIC against M. catarrhalis,Moraxella catarrhalis; [3],12.5 µg/mL
same,MIC against K. pneumonia,Klebsiella pneumonia; [4],25 µg/mL
same,MIC,E. coli DH5α,12.5 µg/mL
same,MIC against E. cloacae,Enterobacter cloacae; [5],12.5 µg/mL
same,MIC against A. hydrophila,Aeromonas hydrophila; [6],50 µg/mL
same,MIC against P. mirabilis,Proteus mirabilis; [7],25 µg/mL
same,MIC against E. coli BL21,E. coli BL21; [8],25 µg/mL
same,MIC against P. vulgaris,Proteus vulgaris; [9],50 µg/mL
same,MIC against P. aeruginosa,Pseudomonas aeruginosa; [10],50 µg/mL
PRT712 (GSNSCQLNNGGCSQLCLPTSETTRTCMCTVGYYLQKNRMSCQ; listed as Homo sapiens),MIC C. diversus,"Citrobacter diversus; 96-well plate, 37° C., 10 h",12.5 µg/mL
same,MIC S. marcescens,"Serratia marcescens; 96-well plate, 37° C., 10 h",12.5 µg/mL
same,MIC M. catarrhalis,"Moraxella catarrhalis; 96-well plate, 37° C., 10 h",25 µg/mL
same,MIC K. pneumonia,"Klebsiella pneumonia; 96-well plate, 37° C., 10 h",25 µg/mL
same,MIC,E. coli DH5α,25 µg/mL
same,MIC E. cloacae,"Enterobacter cloacae; 96-well plate, 37° C., 10 h",50 µg/mL
same,MIC A. hydrophila,"Aeromonas hydrophila; 96-well plate, 37° C., 10 h",25 µg/mL
same,MIC P. mirabilis,"Proteus mirabilis; 96-well plate, 37° C., 10 h",50 µg/mL
same,MIC E. coli BL21,"E. coli BL21; 96-well plate, 37° C., 10 h",12.5 µg/mL
same,MIC P. vulgaris,"Proteus vulgaris; 96-well plate, 37° C., 10 h",25 µg/mL
same,MIC P. aeruginosa,"Pseudomonas aeruginosa; 96-well plate, 37° C., 10 h",50 µg/mL
